{
  "source": "patent US20150342906A1",
  "about": "“Anti-sneeze and nose vestibule care - compositions, methods, and devices” (priority 2014, published 2015)",
  "experiment": "oral 10 mg cetirizine pill during allergic reaction",
  "assay_type": "in vivo, human",
  "conditions": "person, 10 mg pill around noon",
  "description": "The irritants in degraded fall leaves and yard debris caused an overwhelming allergic reaction. They took a pill of 10 mg cetirizine around 12 o'clock noon time. […] They suffered a severe running nose and sneezes. They used the anti-sneeze sticks and cotton swabs described in previous examples frequently.",
  "data": [
    {"smiles": "O=C(O)COCCN1CCN(C(c2ccccc2)c2ccc(Cl)cc2)CC1", "note": "(stereo not shown) [cetirizine]", "values": [
      {"measurement": "effect of oral drug on allergic reaction, running nose and sneezes", "value": "did not take effect as expected"}
    ]}
  ]
}
